# Data published in patent US20110033560A1, “PREPARATION AND A COMPONENT INTENDED TO BE ADDED TO A TOBACCO PRODUCT” (BIOHIT OYJ, priority 2007, published 2011).
# How the values were obtained:
# Format in all cases: in vivo, human
# [1] = Salivary acetaldehyde after alcohol with slow-release buccal tablet (Example 10); conditions: buccal tablet 100 mg, alcohol 0.8 g/kg, every 20 min up to 320 min, FIG. 10
# Description: The testees enjoyed alcohol in amounts of 0.8 g per kilo of body weight. Thereafter, the testees attached, under their upper lip, a buccal tablet that contained 100 mg of N-acetyl cysteine and that slowly released the acetyl cysteine. The salivary acetaldehyde levels were measured at intervals of 20 minutes up to 320 minutes. Throughout, the acetaldehyde contents of those using the acetyl cysteine tablets were lower than of those using the placebo.
# [2] = Moistened cysteine filter in cigarette holder, salivary acetaldehyde during smoking (Example 9); conditions: filter and cysteine in solid form (not moistened)
# Source text: The entire filter of Marlboro Red was removed or, in some tests, a 2-3 mm piece of the original filter was left in the cigarette.
# In the tests, the ready commercial cigarette holders/mouthpieces of Denicotea, www.denicotea.de, were used. In the cigarette holders/mouthpieces, plastic cylinder-shaped “containers” were used, in which the filter material was packed. The original content (intended for the removal of nicotine) of the containers was removed and replaced with the material that was used in the study. The outer dimensions of the container were: diameter 8 mm and length 35 mm.
# Cellulose wadding (c. 100 mg), filter paper (Whattman),
# Cysteine was dissolved in distilled water, 30-180 mg of L-Cysteine/1 ml. The manufacturer: Fluka, 30089.
# […] After this, the testees smoked the cigarettes that had been placed in the mouthpieces. During smoking, saliva samples were collected from those participating in the tests and the acetaldehyde in the saliva was analyzed by gas chromatography, Perkin-Elmer, HS40, headspace Gas Chromatograph.
# [3] = Salivary acetaldehyde during smoking with L-cysteine sucking tablets, gas chromatography (Example 7); conditions: for average salivary acetaldehyde content immediately after smoking: 5 min smoking
# Description: Five smokers (of the age of 29±2.8) participated in the study, in which three cigarettes were smoked (with cleaning periods in between). While smoking each cigarette (in 5 minutes time), the voluntaries sucked tablets blindfold, containing a placebo, 1.25 mg, 2.5 mg, 5 mg, 10 mg or 20 mg of L-cysteine. The acetaldehyde in the saliva samples was analysed by gas chromatography after 0, 5, 10, 20 minutes from starting to smoke.
# [4] = Salivary acetaldehyde during smoking while sucking the Example 1 tablet (Example 6); conditions: sucking tablet with 20 mg cysteine, one cigarette, after the first 5 minutes, two testees
# Description: Two individuals tested the preparation prepared according to Example 1. The salivary acetaldehyde contents of the testees were measured before smoking and then after 5 minutes during smoking, i.e., 0 min, 5 min, 10 min, and 15 min after the testees started smoking. Each testee smoked one cigarette and, at the same time, saliva was collected from their mouths, as they sucked placebo tablets. Smoking lasted for 5 min. In another test, the testees repeated the study by sucking tablets containing 20 mg of cysteine.
structure (smiles),measurement,setting,value
CC(=O)N[C@@H](CS)C(=O)O [N-acetyl cysteine],salivary acetaldehyde contents compared with placebo,[1],lower
N[C@@H](CS)C(=O)O [L-cysteine],filtering of acetaldehyde,[2],do not filter the acetaldehyde
same,reduction of amount of acetaldehyde compared with placebo,[3]; 1.25 mg tablet,about two thirds
same,average salivary acetaldehyde content immediately after smoking,[3]; 5 mg L-cysteine sucking tablet,0 µM
same,inactivation of carcinogenic acetaldehyde in saliva during smoking,"[3]; 5 mg, delivered with a melting tablet",completely inactivated
same,average salivary acetaldehyde content immediately after smoking,[3]; 10 mg L-cysteine sucking tablet,0 µM
same,average salivary acetaldehyde content immediately after smoking,[3]; 20 mg L-cysteine sucking tablet,0 µM
same,removal from saliva of acetaldehyde originating from tobacco,"[3]; tablets of 5 mg, 10 and 20 mg, FIG. 4",all of the acetaldehyde
same,salivary acetaldehyde content,[4],non-measurable level
